# Assay results published in patent US10059713B2 (Takeda Pharmaceutical Company Limited, priority 2014, dated 2018).
# Molecular target: human GPR43 (Homo sapiens (Human), UniProt O15552)
# Assay: Ca-Flux functional assay: determination of agonist/positive allosteric modulator (PAM) activity
# Format: cell-based
# Conditions: CHO-K1 Gα16 cells stably expressing human GPR43; compound added with EC20 sodium acetate; intracellular Ca2+ by FLIPR; does not distinguish agonist from PAM
# In short: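 Agonist or PAM activity read as intracellular Ca2+ rise by FLIPR after adding compound plus EC20 acetate, acetate EC20 set from a prior curve. Cells: CHO-K1 Gα16 with stable human GPR43. EC50 from ten-point half-log curves starting 10 μM.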
# human GPR43, sequence (O15552 whole entry): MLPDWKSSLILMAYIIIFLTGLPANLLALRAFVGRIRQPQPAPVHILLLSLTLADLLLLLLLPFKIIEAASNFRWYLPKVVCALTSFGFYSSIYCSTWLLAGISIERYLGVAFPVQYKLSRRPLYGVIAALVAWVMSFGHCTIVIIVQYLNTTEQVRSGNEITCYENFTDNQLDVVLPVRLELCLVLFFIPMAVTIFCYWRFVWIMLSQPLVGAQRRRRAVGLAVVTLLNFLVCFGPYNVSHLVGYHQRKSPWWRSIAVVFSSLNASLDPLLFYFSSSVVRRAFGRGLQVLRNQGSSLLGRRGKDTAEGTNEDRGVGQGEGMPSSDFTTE
row,EC50 [nM],Compound
1,9510,"CN(CC1OCCO1)c1ncnc2c(S(=O)(=O)c3ccccc3)c(N)[nH]c12 [Example 93, 7-(benzenesulfonyl)-4-N-(1,3-dioxolan-2-ylmethyl)-4-N-methyl-5H-pyrrolo[3,2-d]pyrimidine-4,6-diamine]"
2,131,"Nc1[nH]c2c(OCC3CC3)ncnc2c1S(=O)(=O)c1ccccc1 [Example 55, 7-(benzenesulfonyl)-4-(cyclopropylmethoxy)-5H-pyrrolo[3,2-d]pyrimidin-6-amine]"
3,21,"Cc1nc(N2C[C@H](C)OC[C@@H]2C)c2[nH]c(N)c(S(=O)(=O)c3ccccc3)c2n1 [Example 220, 7-(benzenesulfonyl)-4-[(2S,5S)-2,5-dimethylmorpholin-4-yl]-2-methyl-5H-pyrrolo[3,2-d]pyrimidin-6-amine]"
4,317,"Nc1[nH]c2c(C3=CCCCC3)ncnc2c1S(=O)(=O)c1ccccn1 [Example 20, 4-(cyclohex-1-en-1-yl)-7-(pyridine-2-sulfonyl)-5H-pyrrolo[3,2-d]pyrimidin-6-amine]"
5,37,"Nc1[nH]c2c(C3CCCCC3)cncc2c1S(=O)(=O)c1ccccc1 [Example 32, 3-(benzenesulfonyl)-7-cyclohexyl-1H-pyrrolo[3,2-c]pyridin-2-amine]"
6,16,"Nc1[nH]c2c(C3=CCCCC3)ncnc2c1S(=O)(=O)c1ccccc1F [Example 38, 4-(cyclohex-1-en-t-yl)-7-[(2-fluorobenzene)sulfonyl]-5H-pyrrolo[3,2-d]pyrimidin-6-amine]"
7,1110,"Nc1[nH]c2c(N3CCCC(n4cccn4)C3)ncnc2c1S(=O)(=O)c1ccccc1 (stereo not drawn) [Example 114, 7-(benzenesulfonyl)-4-[3-(1H-pyrazol-1-yl)piperidin-1-yl]-5H-pyrrolo[3,2-d]pyrimidin-6-amine]"
8,24,"Nc1[nH]c2c(N3CCO[C@H](c4ccccc4)C3)ncnc2c1S(=O)(=O)c1ccccc1 [Example 133, 7-(benzenesulfonyl)-4-[(2R)-2-phenylmorpholin-4-yl]-5H-pyrrolo[3,2-d]pyrimidin-6-amine]"
9,103,"Nc1[nH]c2c(C3=CCCCC3)nncc2c1S(=O)(=O)c1ccccc1 [Example 227, 3-(benzenesulfonyl)-7-(cyclohex-1-en-1-yl)-1H-pyrrolo[2,3-d]pyridazin-2-amine]"
10,100,"Cc1nc(OC2CCCC2)c2[nH]c(N)c(S(=O)(=O)c3ccccc3)c2n1 [Example 257, 7-(benzenesulfonyl)-4-(cyclopentyloxy)-2-methyl-5H-pyrrolo[3,2-d]pyrimidin-6-amine]"
11,4040,"COc1cc(F)ccc1S(=O)(=O)c1c(N)[nH]c2c(N3CCOC(C)C3)ncnc12 (stereo not drawn) [Example 222, 7-(4-fluoro-2-methoxybenzenesulfonyl)-4-(2-methylmorpholin-4-yl)-5H-pyrrolo[3,2-d]pyrimidin-6-amine]"
12,65,"Cc1nc(OC(C)C2CCCCC2)c2[nH]c(N)c(S(=O)(=O)c3ccccc3)c2n1 (stereo not drawn) [Example 255, 7-(benzenesulfonyl)-4-(1-cyclohexylethoxy)-2-methyl-5H-pyrrolo[3,2-d]pyrimidin-6-amine]"
13,41,"COc1ccc(S(=O)(=O)c2c(N)[nH]c3c(N4CCOC(C)C4)ncnc23)cc1 (stereo not drawn) [Example 107, 7-(4-methoxybenzenesulfonyl)-4-(2-methylmorpholin-4-yl)-5H-pyrrolo[3,2-d]pyrimidin-6-amine]"
14,9530,"Nc1[nH]c2c(N3CCC3)ncnc2c1S(=O)(=O)c1ccccc1 [Example 30, 4-(azetidin-1-yl)-7-(benzenesulfonyl)-5H-pyrrolo[3,2-d]pyrimidin-6-amine]"

# Continued, molecule first:
row,Compound,EC50 [nM]
1,"Cc1ccc(S(=O)(=O)c2c(N)[nH]c3c(C4=CCCCC4)ncnc23)cc1 [Example 42, 4-(cyclohex-1-en-1-yl)-7-[(4-methylbenzene)sulfonyl]-5H-pyrrolo[3,2-d]pyrimidin-6-amine]",32
2,"CN(Cc1ccccn1)c1ncnc2c(S(=O)(=O)c3ccccc3)c(N)[nH]c12 [Example 95, 7-(benzenesulfonyl)-4-N-methyl-4-N-(pyridin-2-ylmethyl)-5H-pyrrolo[3,2-d]pyrimidine-4,6-diamine]",7130
3,"CC1COCCN1c1ncnc2c(S(=O)(=O)c3ccccc3)c(N)[nH]c12 (stereo not drawn) [Example 54, 7-(benzenesulfonyl)-4-(3-methylmorpholin-4-yl)-5H-pyrrolo[3,2-d]pyrimidin-6-amine]",211
4,"Cc1nc(OC2CCC2)c2[nH]c(N)c(S(=O)(=O)c3ccccc3F)c2n1 [Example 260, 4-cyclobutoxy-7-(2-fluorobenzenesulfonyl)-2-methyl-5H-pyrrolo[3,2-d]pyrimidin-6-amine]",10
5,"CCc1nc(C2=CCCCC2)c2[nH]c(N)c(S(=O)(=O)c3ccccc3)c2n1 [Example 41, 7-(benzenesulfonyl)-4-(cyclohex-1-en-1-yl)-2-ethyl-5H-pyrrolo[3,2-d]pyrimidin-6-amine]",37
6,"Nc1[nH]c2c(C3CCCCC3)ncnc2c1S(=O)(=O)c1ccc(OC(F)F)cc1 [Example 36, 4-cyclohexyl-7-{[4-(difluoromethoxy)benzene]sulfonyl}-5H-pyrrolo[3,2-d]pyrimidin-6-amine]",87
7,"CNc1[nH]c2c(C3CCCCC3)ncnc2c1S(=O)(=O)c1ccccc1 [Example 35, 7-(benzenesulfonyl)-4-cyclohexyl-N-methyl-5H-pyrrolo[3,2-d]pyrimidin-6-amine]",7520
8,"CCC(CC)Oc1nc(C)nc2c(S(=O)(=O)c3ccccc3)c(N)[nH]c12 [Example 248, 7-(benzenesulfonyl)-2-methyl-4-(pentan-3-yloxy)-5H-pyrrolo[3,2-d]pyrimidin-6-amine]",22
9,"Cc1ccc(-c2ncnc3c(S(=O)(=O)c4ccccc4)c(N)[nH]c23)cc1 [Example 104, 7-(benzenesulfonyl)-4-(4-methylphenyl)-5H-pyrrolo[3,2-d]pyrimidin-6-amine]",59
10,"CC1CN(c2nc(C(F)(F)F)nc3c(S(=O)(=O)c4cccc(F)c4)c(N)[nH]c23)CCO1 (stereo not drawn) [Example 265, 7-(3-fluorobenzenesulfonyl)-4-(2-methylmorpholin-4-yl)-2-(trifluoromethyl)-5H-pyrrolo[3,2-d]pyrimidin-6-amine]",68
